Test results published in patent publication US20210278408A1, “METHODS OF TREATMENT OF CANCER WITH SUBSTITUTED PYRROLE AND PYRAZOLE COMPOUNDS AND DIAGNOSIS OF CANCERS SUSCEPTIBLE TO TREATMENT WITH SUBSTITUTED PYRROLE AND PYRAZOLE COMPOUNDS” (Bantam Pharmaceutical, LLC, priority 2018, published 2021).

System: 406 cancer cell lines, 73 blood tumor cell lines and 333 solid tumor cell lines
Assay: OmniScreen drug efficacy on cancer cell lines, fitted area under curve (AUC) of dose-response
Type: cell-based
Design: AUCs: unit not given beside the values
Method: Predictive biomarkers for genes indicating responsiveness to a therapeutic compound can be determined using a cell-based screening technique, such as that offered under the name OmniScreen™ (Crown Biosciences).
In one experimental study, predictive biomarkers were determined for Compound A197 efficacy on 406 cancer cell lines, 73 blood tumor cell lines and 333 solid tumor cell lines. Genomic data for the cell lines was downloaded from the Cancer Cell Line Encyclopedia Project (CCLE) website. Driver mutations were predicted on the Cancer Genome Interpreter Database; only driver mutations were used in the mutation related analysis.
Dose-response curves were fitted by the 4-parameter model:
in which top and bottom are the two asymptotes of the sigmoidal curve, EC50 is the relative IC50, and concentration x is in log−10 scale. To accommodate experimental errors, Bottom was allowed to go down to −20%, and Top was allowed to go up to 120%. The fitting error of a model is measured by
σECS0 is the standard error of EC50. In general, such fitting error should be less than 40% for a model to be considered acceptable. The fitted area under curve (AUC) is calculated by
where a=log(3, 10) and b=log(30000,10).

Question: `Cc1nn(-c2nc(-c3ccc(C(F)(F)F)cc3)c(SC(C)C)s2)c(C(=O)O)c1-c1cccc(F)c1` [Compound A197, 4-(3-fluorophenyl)-1-(5-(isopropylthio)-4-(4-(trifluoromethyl)phenyl)thiazol-2-yl)-3-methyl-1H-pyrazole-5-carboxylic acid] was tested. Which AUCs (KHOS/NP, Bone) did it give?
Answer: 3.37

Question: What about the AUCs (KP4, Pancreas) of the same molecule?
Answer: 2.84

Question: What about the IC50 (KP4, Pancreas) of the same molecule?
Answer: 0.52 µM

Question: And the AUCs (KU812, Blood)?
Answer: 3.91

Question: What about the AUCs (KYSE-410, Esophagus) of the same molecule?
Answer: 3.51

Question: And the AUCs (L-82, Blood)?
Answer: 2.94

Question: And the AUCs (LN-229, Brain&Nerves)?
Answer: 3.59

Question: What about the AUCs (LNCaP clone FGC, Prostate) of the same molecule?
Answer: 2.48

Question: What about the AUCs (LS123, Colorectum) of the same molecule?
Answer: 4

Question: What about the AUCs (LS1034, Colorectum) of the same molecule?
Answer: 3.29

Question: What about the AUCs (MCF7, Breast) of the same molecule?
Answer: 3.76

Question: What about the AUCs (MDA-MB-415, Breast) of the same molecule?
Answer: 3.49

Question: And the AUCs (MDA-MB-436, Breast)?
Answer: 3.33

Question: And the AUCs (MDA-MB-453, Breast)?
Answer: 3.26

Question: What about the AUCs (ME-180, Uterus) of the same molecule?
Answer: 2.65

Question: And the AUCs (MES-SA, Uterus)?
Answer: 2.67

Question: And the AUCs (MES-SA/DX5, Uterus)?
Answer: 2.17

Question: What about the AUCs (MFE-296, Uterus) of the same molecule?
Answer: 3.24

Question: And the AUCs (MIA PaCa-2, Pancreas)?
Answer: 3.15

Question: And the AUCs (MKN1, Stomach/Gastric)?
Answer: 3.21

Question: And the AUCs (MKN45, Stomach/Gastric)?
Answer: 3.54

Question: And the AUCs (MKN74, Stomach/Gastric)?
Answer: 2.89

Question: And the AUCs (MM.1S, Blood)?
Answer: 3.46

Question: And the AUCs (MS751, Uterus/Cervix)?
Answer: 3.52

Question: What about the AUCs (NCI-H69, Lung) of the same molecule?
Answer: 3.75

Question: And the AUCs (NCI-H146, Lung)?
Answer: 3.86

Question: And the AUCs (NCI-H187, Lung)?
Answer: 2.89

Question: What about the AUCs (NCI-H209, Lung) of the same molecule?
Answer: 3.47

Question: And the AUCs (NCI-H226, Lung)?
Answer: 2.98

Question: What about the AUCs (NCI-H292, Lung) of the same molecule?
Answer: 3.17

Question: What about the AUCs (NCI-H441, Lung) of the same molecule?
Answer: 3.85

Question: What about the AUCs (NCI-H446, Lung) of the same molecule?
Answer: 3.83

Question: What about the AUCs (NCI-H460, Lung) of the same molecule?
Answer: 3.13

Question: What about the AUCs (NCI-H522, Lung) of the same molecule?
Answer: 3.12

Question: What about the AUCs (NCI-H526, Lung) of the same molecule?
Answer: 3.6

Question: What about the AUCs (NCI-H596, Lung) of the same molecule?
Answer: 3.81

Question: And the AUCs (NCI-H661, Lung)?
Answer: 3.43

Question: And the AUCs (NCI-H727, Lung)?
Answer: 3.53

Question: And the AUCs (NCI-H747, Large intestine/Colorectum)?
Answer: 3.19

Question: And the AUCs (NCI-H929, Blood)?
Answer: 3.32

Question: What about the AUCs (NCI-H1048, Lung) of the same molecule?
Answer: 3.35

Question: What about the AUCs (NCI-H1563, Lung) of the same molecule?
Answer: 3.71

Question: And the AUCs (NCI-H1581, Lung)?
Answer: 3.1

Question: And the AUCs (NCI-H1648, Lung)?
Answer: 3.56

Question: What about the AUCs (NCI-H1650, Lung) of the same molecule?
Answer: 4.13

Question: And the AUCs (NCI-H1666, Lung)?
Answer: 3.51

Question: And the AUCs (NCI-H1688, Lung)?
Answer: 3.57

Question: What about the AUCs (NCI-H1781, Lung) of the same molecule?
Answer: 3.34

Question: And the AUCs (NCI-H1838, Lung)?
Answer: 3.62

Question: What about the AUCs (NCI-H1915, Lung) of the same molecule?
Answer: 3.33

Question: And the AUCs (NCI-H1975, Lung)?
Answer: 3.6

Question: And the AUCs (NCI-H2009, Lung)?
Answer: 3.22

Question: And the AUCs (NCI-H2052, Lung)?
Answer: 3.92

Question: And the AUCs (NCI-H2087, Lung)?
Answer: 3.19

Question: What about the AUCs (NCI-H2452, Lung) of the same molecule?
Answer: 3.72

Question: And the AUCs (NCI-N87, Stomach/Gastric)?
Answer: 3.09

Question: And the AUCs (NUGC-3, Stomach/Gastric)?
Answer: 3.64

Question: What about the AUCs (NUGC-4, Stomach/Gastric) of the same molecule?
Answer: 3.11

Question: And the AUCs (OCI-AML3, Blood/Leukemia)?
Answer: 3.62

Question: What about the IC50 (OCUM1, OCUM-1, Stomach/Gastric) of the same molecule?
Answer: 68.3 µM

Question: What about the AUCs (OCUM-1, Stomach/Gastric) of the same molecule?
Answer: 3.57

Question: And the AUCs (OCUM-2D, Stomach/Gastric)?
Answer: 3.12

Question: What about the IC50 (OCUM-2D, Stomach/Gastric) of the same molecule?
Answer: 1.14 µM

Question: And the AUCs (OCUM-2M, Stomach/Gastric)?
Answer: 2.88

Question: And the IC50 (OCUM-2M, Stomach/Gastric)?
Answer: 0.848 µM

Question: And the AUCs (OE19, Esophagus/gastric cardia)?
Answer: 3.44

Question: And the IC50 (OSC19, OSC-19, Tongue)?
Answer: 34.5 µM

Question: And the AUCs (OSC-19, Tongue)?
Answer: 3.85

Question: What about the AUCs (OVCAR-3, Ovary) of the same molecule?
Answer: 3.29

Question: And the AUCs (OVCAR-8, Ovary)?
Answer: 3.05

Question: What about the AUCs (PANC-1, Pancreas) of the same molecule?
Answer: 3.13

Question: And the AUCs (PC-3, Prostate)?
Answer: 3.82

Question: What about the IC50 (PL45, PL45, Pancreas) of the same molecule?
Answer: 0.993 µM

Question: What about the AUCs (PL45, Pancreas) of the same molecule?
Answer: 3.37

Question: What about the AUCs (RL95-2, Uterus) of the same molecule?
Answer: 2.63

Question: What about the AUCs (RPMI-2650, Nose) of the same molecule?
Answer: 3.04

Question: And the AUCs (SCC-4, Tongue)?
Answer: 3.69

Question: And the AUCs (SCC-9, Tongue)?
Answer: 3.31

Question: What about the AUCs (SCC-15, Tongue) of the same molecule?
Answer: 3.56

Question: And the AUCs (SCC-25, Tongue)?
Answer: 3.29

Question: And the AUCs (SCH, Stomach/Gastric)?
Answer: 3.48

Question: What about the AUCs (SF268, Brain&Nerves) of the same molecule?
Answer: 3.24

Question: And the AUCs (SF-126, Brain&Nerves)?
Answer: 3.39

Question: And the AUCs (SK-HEP-1, Liver)?
Answer: 3.05

Question: And the AUCs (SK-MEL-5, Skin)?
Answer: 4.12

Question: And the AUCs (SK-MEL-28, Skin)?
Answer: 4.18

Question: And the AUCs (SK-OV-3, Ovary)?
Answer: 3.53

Question: And the AUCs (SK-UT-1, Uterus)?
Answer: 3.67

Question: And the AUCs (SNU-1, Stomach/Gastric)?
Answer: 3.25

Question: What about the AUCs (SNU-5, Stomach/Gastric) of the same molecule?
Answer: 3.11

Question: What about the AUCs (SNU-81, Colorectum) of the same molecule?
Answer: 3.54

Question: And the IC50 (SNU-216, SNU-216, Stomach/Gastric)?
Answer: 124 µM

Question: And the AUCs (SNU-216, Stomach/Gastric)?
Answer: 3.7

Question: And the AUCs (SNU-354, Liver)?
Answer: 3.39

Question: What about the AUCs (SNU-423, Liver) of the same molecule?
Answer: 3.2

Question: And the IC50 (SNU-484, SNU-484, Stomach/Gastric)?
Answer: 74.8 µM

Question: And the AUCs (SNU-484, Stomach/Gastric)?
Answer: 3.64

Question: What about the IC50 (SNU-601, SNU-601, Stomach/Gastric) of the same molecule?
Answer: 0.331 µM

Question: What about the AUCs (SNU-601, Stomach/Gastric) of the same molecule?
Answer: 2.89

Question: And the AUCs (SNU-620, Stomach/Gastric)?
Answer: 3.75

Question: And the AUCs (SNU-638, Stomach/Gastric)?
Answer: 3.32

Question: And the AUCs (SNU-668, Stomach/Gastric)?
Answer: 3.48

Question: What about the AUCs (SNU-719, Stomach/Gastric) of the same molecule?
Answer: 3.58

Question: And the IC50 (SNU-719, Stomach/Gastric)?
Answer: 1320 µM

Question: What about the AUCs (SNU-C5, Large intestine/Colorectum) of the same molecule?
Answer: 3.5

Question: And the AUCs (SW48, Colorectum)?
Answer: 3.74

Question: And the AUCs (SW480, Colorectum)?
Answer: 3.62

Question: What about the IC50 (SW579, SW579, Thyroid) of the same molecule?
Answer: 50.5 µM

Question: What about the AUCs (SW579, Thyroid) of the same molecule?
Answer: 3.73

Question: And the AUCs (SW626, Ovary)?
Answer: 3.89

Question: And the AUCs (SW684, Soft tissue)?
Answer: 3.77

Question: What about the AUCs (SW756, Ovary) of the same molecule?
Answer: 3.75

Question: And the AUCs (SW948, Colorectum)?
Answer: 3.37

Question: And the AUCs (SW982, Soft tissue)?
Answer: 3.99

Question: And the AUCs (SW1116, Colorectum)?
Answer: 3.82

Question: What about the AUCs (SW1271, Lung) of the same molecule?
Answer: 3.9

Question: And the IC50 (SW1271, SW1271, Lung)?
Answer: 498 µM

Question: And the AUCs (SW1990, Pancreas)?
Answer: 3.12

Question: What about the AUCs (T47D, Breast) of the same molecule?
Answer: 3.33

Question: And the AUCs (T84, Colorectum)?
Answer: 3.57

Question: And the AUCs (TE-1, Esophagus)?
Answer: 3.23

Question: What about the AUCs (TF-1, Blood) of the same molecule?
Answer: 3.24

Question: And the AUCs (TJ905, Brain&Nerves)?
Answer: 3.68

Question: And the AUCs (TT, Thyroid)?
Answer: 3.19

Question: What about the IC50 (TT, Thyroid) of the same molecule?
Answer: 2.17 µM

Question: And the AUCs (U266B1, Blood)?
Answer: 3.41

Question: And the AUCs (U-2 OS, Bone)?
Answer: 3.44

Question: What about the AUCs (UACC-812, Breast) of the same molecule?
Answer: 3.52

Question: And the AUCs (UO.31, Kidney)?
Answer: 3.58

Question: And the AUCs (WM-266-4, Skin)?
Answer: 3.87

Question: And the AUCs (Y-79, Eye)?
Answer: 3.72

Question: And the AUCs (YCC-1, Stomach/Gastric)?
Answer: 3.54

Question: And the AUCs (YCC-2, Stomach/Gastric)?
Answer: 3.66

Question: What about the AUCs (YCC-6, Stomach/Gastric) of the same molecule?
Answer: 2.95

Question: And the IC50 (YCC-6, Stomach/Gastric)?
Answer: 6.32 µM

Question: What about the AUCs (YCC-10, Stomach/Gastric) of the same molecule?
Answer: 3.64

Question: What about the IC50 (YCC-10, Stomach/Gastric) of the same molecule?
Answer: 412 µM

Question: What about the AUCs (YCC-11, Stomach/Gastric) of the same molecule?
Answer: 3.34

Question: What about the AUCs (ZR-75-30, Breast) of the same molecule?
Answer: 3.44
